{"source": "patent US6716854B2", "about": "“Treatments for restless legs syndrome” (Pfizer, Inc., priority 2000, dated 2004)", "key": {"[1]": {"system": "RLS patients", "conditions": "cited from earlier work"}, "[2]": {"conditions": "in vivo; cited from earlier work"}, "[3]": {"system": "people with RLS", "conditions": "recent studies quoted from RLS Internet site; cited from earlier work"}}, "note": "Counter-ions that a name gives are not always drawn."}
{"smiles": "CN[C@@H]1Cc2cccc3[nH]c(=S)n(c23)C1", "values": [{"measurement": "melting point", "value": "210 to 213", "unit": "°C"}]}
{"smiles": "CN[C@@H]1Cc2cccc3[nH]c(=S)n(c23)C1.O=C(O)/C=C\\C(=O)O", "values": [{"measurement": "melting point", "value": "195 to 196", "unit": "°C"}]}
{"smiles": "N[C@@H](Cc1ccc(O)c(O)c1)C(=O)O", "note": "[L-dopa]", "values": [{"measurement": "suppression of RLS", "setting": "[1]; L-dopa 100 mg with carbidopa 10 mg, in most cases, rebound of PLMS in last part of night", "value": "completely suppresses RLS"}, {"measurement": "effect on RLS at bedtime and PLMS throughout the night", "setting": "[1]; administered twice at night, PSG recordings, double-blind", "value": "significant reduction"}]}
{"smiles": "CCCN1C[C@H](CSC)C[C@@H]2c3cccc4[nH]cc(c34)C[C@H]21", "note": "[Pergolide]", "values": [{"measurement": "half-life", "setting": "[2]", "value": "7 to 16", "unit": "h"}]}
{"smiles": "CCCN1C[C@H](CSC)C[C@@H]2c3cccc4[nH]cc(c34)C[C@H]21", "note": "[Permax®, pergolide mesylate]", "values": [{"measurement": "effectiveness in treating RLS relative to Sinemet", "setting": "[3]", "value": "as effective as Sinemet®"}, {"measurement": "potential for causing augmentation", "setting": "[3]", "value": 10, "unit": "%"}]}
